Measured values as given in PubChem BioAssay (NCI).
“And” between values parts separate entries of the source, which are not always exact repeats. Equal values may be shown once.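 Dose response: 5 concentrations. Exposure: 48 h. Format: 96-well plates. Endpoint: linear interpolation; highest concentration if not reached. GI50 = concentration required for 50% inhibition of growth. TGI marks complete inhibition of growth.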

What was measured:
Assay in all cases: NCI tumour cell line growth inhibition, 48 h
SK-OV-3 ovarian = test system: SK-OV-3 ovarian
LOX IMVI melanoma = test system: LOX IMVI melanoma
UACC-257 melanoma = test system: UACC-257 melanoma
IGROV1 ovarian = test system: IGROV1 ovarian
SF-268 CNS = test system: SF-268 CNS
UO-31 renal = test system: UO-31 renal
PC-3 prostate = test system: PC-3 prostate
BT-549 breast = test system: BT-549 breast
MDA-MB-231 breast = test system: MDA-MB-231 breast
RXF 393 renal = test system: RXF 393 renal

| Structure (SMILES) | TGI (SK-OV-3 ovarian) [µM] | TGI (LOX IMVI melanoma) [µM] | TGI (UACC-257 melanoma) [µM] | TGI (IGROV1 ovarian) [µM] | TGI (SF-268 CNS) [µM] | TGI (UO-31 renal) [µM] | GI50 (PC-3 prostate) | TGI (PC-3 prostate) [µM] | GI50 (SK-OV-3 ovarian) | GI50 (LOX IMVI melanoma) | GI50 (BT-549 breast) [µM] | TGI (BT-549 breast) [µM] | GI50 (MDA-MB-231 breast) | TGI (MDA-MB-231 breast) [µM] | GI50 (IGROV1 ovarian) | GI50 (SF-268 CNS) | TGI (RXF 393 renal) [µM] | GI50 (UACC-257 melanoma) [µM] | GI50 (RXF 393 renal) [µM] | GI50 (UO-31 renal) [µM] |
| --- | --- | --- | --- | --- | --- | --- | --- | --- | --- | --- | --- | --- | --- | --- | --- | --- | --- | --- | --- | --- |
| O=C(CCC(=O)Nc1cccc(C(F)(F)F)c1)CC(=O)c1ccc2ccccc2c1 | > 100 | > 100 | > 100 | > 100 | > 100 | > 100 | – | – | – | – | – | – | – | – | – | – | – | – | – | – |
| CC[C@H](C)[C@H](NC(=O)[C@H]1CCCCN1C)C(=O)N(C)[C@H](C[C@@H](OC(C)=O)c1cccc(C(=O)N[C@@H](Cc2ccccc2)C[C@H](C)C(=O)O)n1)C(C)C | > 25 | > 25 | – | > 25 | > 25 | > 25 | 0.00273 µM and 0.0025 µM | > 25 | 0.00348 µM and 0.0025 µM | 0.00168 µM and 0.0025 µM | 0.0025 | 0.0116 | 0.00316 µM and 0.0025 µM | > 25 | 0.0038 µM and 0.0025 µM | 0.00435 µM and 0.0025 µM | – | – | – | – |
| COc1cc(/C=C(\NC(=O)c2ccccc2)c2nc3ncncc3[nH]2)cc(OC)c1OC | > 100 | – | – | > 100 | > 100 | > 100 | – | – | – | – | – | – | – | – | – | – | > 100 | – | – | – |
| COc1ccccc1/C=C\C(=O)C1COCN1 (stereo not drawn) | 30.1 | 38.1 | 34 | 64.6 | 64.4 | 44 | – | 29.1 | – | – | – | – | – | 38.8 | – | – | 81.8 | – | – | – |
| O=C(Nc1cc(Cl)ccc1O)c1ccccc1Nc1ccnc(C(F)(F)F)c1 | 6.23 | 22.7 | 8.5 | – | 13.2 | – | 2.84 µM | > 100 | 2.21 µM | 3.2 µM | 2.46 | 7.95 | 2.12 µM | 5.19 | – | 3.13 µM | 10.6 | 2.85 | 2.77 | – |
| N#C/C(=C1\OC(=N)C(c2ccccc2)C1=O)c1ccccc1 (stereo not drawn) | > 100 | 91.5 | 59.3 | > 80.7 | > 100 | 42.8 | – | – | – | – | – | – | – | – | – | – | 31.8 | – | – | – |
| CC1=CP(=O)(c2ccccc2)C=C(C)C1=C(Cl)Cl (stereo not drawn) | 72.3 | 14.9 | – | 34.1 | 42.4 | – | – | – | – | – | – | – | – | – | – | – | 33.5 | – | – | – |
| COc1cc([N+](=O)[O-])c(S(=O)(=O)O)cc1-n1nc(C(=O)Nc2ccccc2)n[n+]1-c1cc(S(=O)(=O)[O-])c([N+](=O)[O-])cc1OC | > 100 | > 100 | > 100 | > 100 | > 100 | > 100 | – | > 100 | – | – | – | > 100 | – | – | – | – | – | – | – | – |
| O=C1C=C2CCCC2C(C(=O)O)(C(=O)O)C1 (stereo not drawn) | > 100 | > 100 | > 100 | > 100 | > 100 | > 100 | – | – | – | – | – | – | – | – | – | – | > 100 | – | – | – |
| CN(C)Cc1ccc(NC(=O)c2cncc(C#Cc3cnc(N)c4ncccc34)c2)cc1F | – | – | 26.7 | 3.96 | 4.24 | 4.08 | 1.74 µM | 3.34 | – | – | 19.4 | 39.6 | 1.6 µM | 3.13 | 2.13 µM | 2.25 µM | – | 7.31 | – | 2.38 |
| CC1C=CC(C(N)C(=O)O)O1 (stereo not drawn) | > 100 | > 100 | – | > 100 | > 100 | > 100 | – | – | – | – | – | – | – | – | – | – | > 100 | – | – | – |
| COc1cc2c(c(OC)c1OC)-c1ccc(SC)c(=O)cc1[C@@H](NC(=O)C(F)(F)F)CC2 | – | > 87.3 | > 4.64 | > 100 | 63.9 | > 95.7 | – | > 100 | – | – | – | > 100 | – | > 100 | – | – | 1.28 | – | – | – |
| O=C(N/C(=C\c1ccccc1O)c1nc2ccccc2[nH]1)c1ccccc1 | > 100 | > 100 | > 100 | > 100 | > 100 | > 100 | – | – | – | – | – | – | – | – | – | – | > 100 | – | – | – |
| C/C=C/C(=O)[O-].C/C=C/C(=O)[O-].N.N.N.N.[Co+3].[O-][Cl+3]([O-])([O-])[O-] | > 100 | > 100 | > 100 | > 100 | > 100 | > 100 | – | – | > 100 µM | > 100 µM | – | – | – | – | > 100 µM | > 100 µM | – | > 100 | – | > 100 |
| O=C(N=c1nc(NC(=O)c2ccccc2)ss1)c1ccccc1 | 68.9 | > 100 | 48.1 | > 100 | > 100 | 62.8 | – | – | – | – | – | – | – | – | – | – | > 100 | – | – | – |
| O=C(Nc1cc(Cl)cc(Cl)c1)c1cccc(NC2=C(Cl)C(=O)N(Cc3ccccc3)C2=O)c1 | > 100 | > 100 | – | > 100 | > 100 | > 100 | 19.6 µM | > 100 | 33.6 µM | 12.1 µM | – | – | – | – | 41.1 µM | 42.7 µM | > 100 | – | 18.9 | 16.9 |
| CC(=O)Nc1cc2cc(NS(=O)(=O)c3ccc(Cl)c(Cl)c3)ccc2oc1=O | – | 44.3 | > 100 | > 100 | 61.7 | > 100 | – | 51.1 | – | – | – | > 100 | – | 46.2 | – | – | 25.6 | – | – | – |
| COc1cc2ncnc(Nc3ccc(Oc4ccnc(C)c4)c(C)c3)c2cc1NC(=O)CC1CCSS1 (stereo not drawn) | 1.63 | > 50 | 2.35 | > 50 | 2.17 | 2.83 | – | – | 0.854 µM | 2.62 µM | 1.2 | 2.94 | 0.895 µM | 1.98 | 1.54 µM | 0.94 µM | > 50 | 1.02 | 1.5 | 0.853 |
| CCC(C)C1=C(O)[N+]2([O-])Oc3ccc(C4=C(O)C(=O)C(c5ccc(O)cc5)=C(O)C4=O)cc3OC2(C(C)CC)C(=O)N1O (stereo not drawn) | – | 33.9 | > 100 | > 100 | > 100 | > 100 | 6.14 µM | > 100 | – | 7.28 µM | 8.74 | > 100 | 15.5 µM | 63.8 | 17 µM | 5.83 µM | > 100 | 11.5 | 8.49 | 22.2 |
| CCCCCCCCCCCCN=C(N)c1ccc(N2CCN(c3ccc(C(N)=NCCCCCCCCCCCC)cc3)CC2)cc1 | 34.1 | 23 | > 50 | – | 21.1 | > 50 | 9.02 µM | 20.2 | 19.5 µM | 12 µM | – | – | 10.3 µM | 20 | – | 9.84 µM | 37.6 | 26.1 | 9.54 | 22.6 |
